The source of these data is PubChem BioAssay AID328 (DTP/NCI, 2004).

Several values for one entry are separate records, joined by “and”; a condition that tells them apart may be missing. Identical values can stand only once. Toxic doses and inconclusive results are not listed.

The test relates to BDF1 mice, P388 leukemia ip, median survival T/C. Briefly: NCI In Vivo Anticancer Drug Screen. Data for tumor model P388 Leukemia (intraperitoneal) in B6D2F1 (BDF1) mice. The following applies: endpoint: median survival time, higher = longer survival. Summed up: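 Compound-treated tumour-bearing mice were compared with vehicle-treated controls. Survival was recorded, and the value is the treated-group measurement divided by the control-group measurement (T/C).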

Setting [1] is: dose: 50.0 mg/kg/injection, schedule: Q01DX009 (ip), vehicle: saline with Tween-80.
Where [2] appears, read: dose: 100.0 mg/kg/injection, schedule: Q01DX009 (ip), vehicle: saline with Tween-80.
The mark [3] stands for this setting: dose: 200.0 mg/kg/injection, schedule: Q01DX009 (ip), vehicle: saline with Tween-80.
The mark [4] stands for this setting: dose: 100.0 mg/kg/injection, schedule: Q04DX003 (ip), vehicle: saline with Tween-80.
[5] abbreviates: dose: 200.0 mg/kg/injection, schedule: Q04DX003 (ip), vehicle: saline with Tween-80.
Where [6] appears, read: dose: 400.0 mg/kg/injection, schedule: Q04DX003 (ip), vehicle: saline with Tween-80.
[7] abbreviates: dose: 37.5 mg/kg/injection, schedule: Q01DX009 (ip), vehicle: saline with Tween-80.
Where [8] appears, read: dose: 75.0 mg/kg/injection, schedule: Q01DX009 (ip), vehicle: saline with Tween-80.

With `CN1CCC/C(=C(/N)c2ccccc2)S1(=O)=O`, the T/C reads like this: under setting [1], 104 % of control; under setting [2], 100 % of control; under setting [3], 104 % of control.
As for `CP1(=O)CC(=O)CCC(=O)C1`, the T/C is, setting by setting: (dose: 50.0 mg/kg/injection, schedule: Q04DX002 (ip), vehicle: saline) 104 % of control; (dose: 100.0 mg/kg/injection, schedule: Q04DX002 (ip), vehicle: saline) 105 % of control; (dose: 200.0 mg/kg/injection, schedule: Q04DX002 (ip), vehicle: saline) 106 % of control.
Take `Cc1ccccc1N1C(=O)CSC1=S`: the T/C was 100 % of control under setting [4]; 90 % of control (dose: 132.0 mg/kg/injection, schedule: Q04DX003 (ip), vehicle: saline with Tween-80); 100 % of control under setting [5]; 100 % of control (dose: 300.0 mg/kg/injection, schedule: Q04DX003 (ip), vehicle: saline with Tween-80); 90 % of control under setting [6].
With `Nc1cc2c3ccccc3ncc2c2ccccc12`, the T/C under setting [4] was 100 % of control, the T/C under setting [5] is 100 % of control and the T/C under setting [6] is 100 % of control.
As for `CC(=O)Nc1nnc(/C=C/c2ccc([N+](=O)[O-])o2)s1`, under “dose: 400.0 mg/kg/injection, schedule: Q04DX003 (ip), vehicle: Klucel (hydroxypropylcellulose) (HPC)”, the T/C was 100 % of control.
For `CCN(C(=O)CCl)C(C)(C)C(SSSC(c1ccc(Cl)cc1)C(C)(C)N(CC)C(=O)CCl)c1ccc(Cl)cc1` (configuration not stated), the T/C by setting is: (dose: 12.5 mg/kg/injection, schedule: Q01DX009 (ip), vehicle: saline) 118 % of control; (dose: 16.5 mg/kg/injection, schedule: Q01DX009 (ip), vehicle: saline) 116 % of control; (dose: 25.0 mg/kg/injection, schedule: Q01DX009 (ip), vehicle: saline) 116 % of control; (dose: 37.5 mg/kg/injection, schedule: Q01DX009 (ip), vehicle: saline) 116 % of control; (dose: 50.0 mg/kg/injection, schedule: Q01DX009 (ip), vehicle: saline) 118 % of control.
Turning to `CCCN1CCC2(CC1)COCc1ccccc12`, the T/C (dose: 50.0 mg/kg/injection, schedule: Q04DX002 (ip), vehicle: saline with Tween-80) was 98 % of control and the T/C (dose: 100.0 mg/kg/injection, schedule: Q04DX002 (ip), vehicle: saline with Tween-80) was 91 % of control.
As for `COc1ccc(C(CCl)(CCl)c2ccc(OC)c(C)c2)cc1C`, the T/C is 104 % of control under setting [2]; 91 % of control under setting [4]; 87 % of control under setting [5]; 100 % of control (dose: 400.0 mg/kg/injection, schedule: Q01DX009 (ip), vehicle: saline with Tween-80); 100 % of control under setting [6].
Take `N=C1CCCC1C(=S)SCCC(N)=O` (configuration not stated): the T/C reads like this: under setting [1], 99 % of control; under setting [2], 99 % of control; under setting [3], 94 % of control.
Consider `CCOC1CCC(C(C)=O)C(C#N)(C#N)C1(C#N)C#N` (configuration not stated), for which the T/C is 108 % of control (dose: 6.25 mg/kg/injection, schedule: Q01DX001 (ip), vehicle: saline with Tween-80); 123 % of control (dose: 12.5 mg/kg/injection, schedule: Q01DX001 (ip), vehicle: saline with Tween-80); 110 % of control and 119 % of control (dose: 25.0 mg/kg/injection, schedule: Q01DX001 (ip), vehicle: saline with Tween-80); 124 % of control (dose: 50.0 mg/kg/injection, schedule: Q01DX001 (ip), vehicle: saline with Tween-80).
Regarding `Cc1ccc(S(=O)(=O)OCCN(CCOS(=O)(=O)c2ccc(C)cc2)c2ccc(N=O)cc2)cc1`, the T/C is, setting by setting: (dose: 66.0 mg/kg/injection, schedule: Q04DX003 (ip), vehicle: saline sonified) 195 % of control; (dose: 100.0 mg/kg/injection, schedule: Q04DX003 (ip), vehicle: saline sonified) 200 % of control; (dose: 150.0 mg/kg/injection, schedule: Q04DX003 (ip), vehicle: saline sonified) 216 % of control.
`CC(=O)c1cccc([N+](=O)[O-])c1`: the T/C runs as follows: (dose: 100.0 mg/kg/injection, schedule: Q04DX003 (ip), vehicle: other) 100 % of control; (dose: 200.0 mg/kg/injection, schedule: Q04DX003 (ip), vehicle: other) 104 % of control; (dose: 400.0 mg/kg/injection, schedule: Q04DX003 (ip), vehicle: other) 90 % of control.
Consider `Cc1ccc(C(=O)CC(O)(C(F)(F)F)C(F)(F)F)cc1`, for which the T/C was 100 % of control (dose: 100.0 mg/kg/injection, schedule: Q01DX009 (ip), vehicle: other); 95 % of control (dose: 200.0 mg/kg/injection, schedule: Q01DX009 (ip), vehicle: other); 121 % of control (dose: 400.0 mg/kg/injection, schedule: Q01DX009 (ip), vehicle: other).
With `CC#CC#C/C=C1\OC2(CCCCO2)C(O)C1OC(=O)CC(C)C` (configuration not stated), the T/C reads like this: (dose: 10.0 mg/kg/injection, schedule: Q01DX009 (ip), vehicle: Klucel (hydroxypropylcellulose) (HPC)) 100 % of control; (dose: 20.0 mg/kg/injection, schedule: Q01DX009 (ip), vehicle: Klucel (hydroxypropylcellulose) (HPC)) 102 % of control; (dose: 40.0 mg/kg/injection, schedule: Q01DX009 (ip), vehicle: Klucel (hydroxypropylcellulose) (HPC)) 111 % of control.
Regarding `c1cc2c(c(NC3=NCCO3)c1)CCCC2`, the T/C is, setting by setting: under setting [7], 113 % of control; under setting [8], 118 % of control; (dose: 150.0 mg/kg/injection, schedule: Q01DX009 (ip), vehicle: saline with Tween-80) 120 % of control.
For `Nc1n[nH]c(N)n1`, the T/C runs as follows: (dose: 100.0 mg/kg/injection, schedule: Q01DX009 (ip), vehicle: saline) 113 % of control; (dose: 200.0 mg/kg/injection, schedule: Q01DX009 (ip), vehicle: saline) 113 % of control.
Take `N#CCC(=O)O`: the T/C runs as follows: (dose: 18.75 mg/kg/injection, schedule: Q01DX009 (ip), vehicle: saline with Tween-80) 100 % of control; under setting [7], 100 % of control; under setting [8], 90 % of control.
As to `C/C(=C\c1ccc(OCc2ccccc2)cc1)C(=O)c1ccc(Cl)cc1`, the T/C was 90 % of control under setting [1], 87 % of control under setting [2] and 92 % of control under setting [3].
